# In patent publication US20240343733A1, “COMPOUNDS FOR TARGETING DEGRADATION OF IRAK4 PROTEINS” (BIOGEN MA INC., priority 2021, published 2024):
# Target: T1, IRAK4 (Homo sapiens, UniProt Q9NWZ3)
# T1 construct: 293Tcells expressing HiBiT-tagged IRAK4 were then added into 384-well plates
# T1 sequence (Q9NWZ3 1-460): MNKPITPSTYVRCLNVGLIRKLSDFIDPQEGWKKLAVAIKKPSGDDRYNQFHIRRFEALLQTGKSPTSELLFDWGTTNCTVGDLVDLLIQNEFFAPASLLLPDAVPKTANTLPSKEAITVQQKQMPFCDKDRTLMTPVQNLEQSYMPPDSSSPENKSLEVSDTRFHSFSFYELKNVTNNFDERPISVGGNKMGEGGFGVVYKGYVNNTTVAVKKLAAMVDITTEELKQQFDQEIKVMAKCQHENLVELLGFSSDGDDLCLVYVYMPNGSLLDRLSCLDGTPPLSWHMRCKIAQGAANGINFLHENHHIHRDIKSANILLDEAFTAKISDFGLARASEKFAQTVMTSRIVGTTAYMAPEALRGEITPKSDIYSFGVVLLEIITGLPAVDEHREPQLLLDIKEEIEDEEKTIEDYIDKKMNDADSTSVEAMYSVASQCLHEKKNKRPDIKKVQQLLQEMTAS
# Test: IRAK4 Degradation Assay, HiBiT Method
# Type: cell-based
# Details: 293T cells expressing HiBiT-tagged IRAK4, 6 hours
# Outline: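 Luminescent read-out with Nano-Glo HiBiT lytic reagent after 6 h compound exposure at 37 °C. Cells were HiBiT-IRAK4 knock-in 293T (C-terminal tag), 10,000 per well. Compounds ran as 11-point half-log dilutions from […] highest dose, duplicate wells; DMSO served as negative control.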
row,DC50 [nM],Compound
1,< 10,"CC(C)Oc1cc2nn([C@H]3CC[C@H](CN4CCN(c5ccn6c(N7CCC(=O)NC7=O)cnc6c5)CC4)CC3)cc2cc1C(=O)Nc1cccn([C@H]2C[C@H]2F)c1=O [Example 146, 2-((1r,4S)-4-((4-(3-(2,4-dioxotetrahydropyrimidin-1(2H)-yl)imidazo[1,2-a]pyridin-7-yl)piperazin-1-yl)methyl)cyclohexyl)-N-(1-((1S,2R)-2-fluorocyclopropyl)-2-oxo-1,2-dihydropyridin-3-yl)-6-isopropoxy-2H-indazole-5-carboxamide]"
2,10 to 100,"CC(C)Oc1cc2nc([C@H]3CC[C@H](CN4CCN(c5ccc(C6CCC(=O)NC6=O)cn5)CC4)CC3)cn2cc1C(=O)Nc1cccn([C@H]2C[C@H]2F)c1=O (stereo partly drawn) [Example 180, 2-((1r,4S)-4-((4-(5-(2,6-dioxopiperidin-3-yl)pyridin-2-yl)piperazin-1-yl)methyl)cyclohexyl)-N-(1-((1S,2R)-2-fluorocyclopropyl)-2-oxo-1,2-dihydropyridin-3-yl)-7-isopropoxyimidazo[1,2-a]pyridine-6-carboxamide]"
3,10 to 100,"CC(C)Oc1cc2nc([C@H]3CC[C@H](CN4CC5(CCCN5Cc5ccc(OC6CCC(=O)NC6=O)cc5)C4)CC3)cn2cc1C(=O)Nc1cccc(C(F)F)n1 (stereo partly shown) [Example 46, N-[6-(difluoromethyl)-2-pyridyl]-2-[4-[[5-[[4-[(2,6-dioxo-3-piperidyl)oxy]phenyl]methyl]-2,5-diazaspiro[3.4]octan-2-yl]methyl]cyclohexyl]-7-isopropoxy-imidazo[1,2-a]pyridine-6-carboxamide]"
4,< 10,"CC(C)Oc1cc2nn([C@H]3CC[C@H](CN4CCC(c5cc6c(cc5F)c(N5CCC(=O)NC5=O)nn6C)CC4)CC3)cc2cc1C(=O)Nc1cccn([C@H]2C[C@H]2F)c1=O [Example 130, 2-((1r,4S)-4-((4-(3-(2,4-dioxotetrahydropyrimidin-1(2H)-yl)-5-fluoro-1-methyl-1H-indazol-6-yl)piperidin-1-yl)methyl)cyclohexyl)-N-(1-((1S,2R)-2-fluorocyclopropyl)-2-oxo-1,2-dihydropyridin-3-yl)-6-isopropoxy-2H-indazole-5-carboxamide]"
5,10 to 100,"CC(C)Oc1cc2nc([C@H]3CC[C@H](CN4CCC(c5cc6c(cc5F)c(N5CCC(=O)NC5=O)nn6C)C(F)(F)C4)CC3)cn2cc1C(=O)Nc1cnn2cccnc12 (stereo partly shown) [Example 170, 2-((1r,4r)-4-((4-(3-(2,4-dioxotetrahydropyrimidin-1(2H)-yl)-5-fluoro-1-methyl-1H-indazol-6-yl)-3,3-difluoropiperidin-1-yl)methyl)cyclohexyl)-7-isopropoxy-N-(pyrazolo[1,5-a]pyrimidin-3-yl)imidazo[1,2-a]pyridine-6-carboxamide]"
6,< 10,"CC(C)Oc1cc2nn(C3CCN(C(=O)CC4CCN(c5ccc(C6CCC(=O)NC6=O)cn5)CC4)CC3)cc2cc1C(=O)Nc1cccn([C@H]2C[C@H]2F)c1=O (stereo partly drawn) [Example 149, 2-(1-(2-(1-(5-(2,6-dioxopiperidin-3-yl)pyridin-2-yl)piperidin-4-yl)acetyl)piperidin-4-yl)-N-(1-((1S,2R)-2-fluorocyclopropyl)-2-oxo-1,2-dihydropyridin-3-yl)-6-isopropoxy-2H-indazole-5-carboxamide]"
7,10 to 100,"CC(C)Oc1cc2nc(C3CCN(C(=O)CN4CCC(c5cc(F)c(C6CCC(=O)NC6=O)cc5F)CC4)CC3)cn2cc1C(=O)Nc1cnn2cccnc12 (stereo not shown) [Example 77, 2-[1-[2-[4-[4-(2,6-dioxo-3-piperidyl)-2,5-difluoro-phenyl]-1-piperidyl]acetyl]-4-piperidyl]-7-isopropoxy-N-pyrazolo[1,5-a]pyrimidin-3-yl-imidazo[1,2-a]pyridine-6-carboxamide]"
8,10 to 100,"CC(C)Oc1cc2nn([C@H]3CC[C@H](CN4CCC(c5ccc(O[C@@H]6CCC(=O)NC6=O)cc5)CC4)CC3)cc2cc1C(=O)Nc1cccn(C2CC2)c1=O (single isomer, unassigned) [Example 143]"

# Continued, compound first:
row,Compound,DC50 [nM]
1,"CC(C)Oc1cc2nc(C3CCN(C(=O)CC4CCN(c5ccc6c([C@@H]7CCC(=O)NC7=O)nn(C)c6c5)CC4)CC3)cn2cc1C(=O)Nc1cccc(C(F)F)n1 [Example 92, (S)—N-(6-(difluoromethyl)pyridin-2-yl)-2-(1-(2-(1-(3-(2,6-dioxopiperidin-3-yl)-1-methyl-1H-indazol-6-yl)piperidin-4-yl)acetyl)piperidin-4-yl)-7-isopropoxyimidazo[1,2-a]pyridine-6-carboxamide]",10 to 100
2,"CC(C)Oc1cc2nc(C3CCN(C(=O)CN4CCC(c5ccc6c(C7CCC(=O)NC7=O)nn(C)c6c5)C(F)(F)C4)CC3)cn2cc1C(=O)Nc1cccc(C(F)F)n1 (stereo not shown) [Example 78, N-[6-(difluoromethyl)-2-pyridyl]-2-[1-[2-[4-[3-(2,6-dioxo-3-piperidyl)-1-methyl-indazol-6-yl]-3,3-difluoro-1-piperidyl]acetyl]-4-piperidyl]-7-isopropoxy-imidazo[1,2-a]pyridine-6-carboxamide]",10 to 100
3,"CC(C)Oc1cc2nn(C3CCN(C(=O)CC4(O)CCN(c5cc(F)c(C6CCC(=O)NC6=O)cc5F)CC4)CC3)cc2cc1C(=O)Nc1cccc(C(F)F)n1 (stereo not shown) [Example 67, N-(6-(difluoromethyl)pyridin-2-yl)-2-(1-(2-(1-(4-(2,6-dioxopiperidin-3-yl)-2,5-difluorophenyl)-4-hydroxypiperidin-4-yl)acetyl)piperidin-4-yl)-6-isopropoxy-2H-indazole-5-carboxamide]",< 10
4,"CC(C)Oc1cc2nc([C@H]3CC[C@H](CN(C)C4CCN(Cc5ccc(NC6CCC(=O)NC6=O)cc5)CC4)CC3)cn2cc1C(=O)Nc1cccc(C(F)(F)F)n1 (stereo partly shown) [Example 8, 2-[4-[[[1-[[4-[(2,6-dioxo-3-piperidyl)amino]phenyl]methyl]-4-piperidyl]-methyl-amino]methyl]cyclohexyl]-7-isopropoxy-N-[6-(trifluoromethyl)-2-pyridyl]imidazo[1,2-a]pyridine-6-carboxamide]",> 1000
5,"CO[C@H]1CN(C[C@H]2CC[C@H](n3cc4cc(C(=O)Nc5cccn(C6CC6)c5=O)c(OC(C)C)cc4n3)CC2)CC[C@H]1c1ccc2c(N3CCC(=O)NC3=O)nn(C)c2c1 [Example 140, N-(1-cyclopropyl-2-oxo-1,2-dihydropyridin-3-yl)-2-((1R,4r)-4-(((3R,4S)-4-(3-(2,4-dioxotetrahydropyrimidin-1(2H)-yl)-1-methyl-1H-indazol-6-yl)-3-methoxypiperidin-1-yl)methyl)cyclohexyl)-6-isopropoxy-2H-indazole-5-carboxamide]",< 10
6,"CC(C)Oc1cc2nn(C3CCN(C(=O)CC4(O)CCN(c5ccc(NC6CCC(=O)NC6=O)cc5F)CC4)CC3)cc2cc1C(=O)Nc1cccc(C(F)(F)F)n1 (stereo not shown) [Example 59, 2-[1-[2-[1-[4-[(2,6-dioxo-3-piperidyl)amino]-2-fluoro-phenyl]-4-hydroxy-4-piperidyl]acetyl]-4-piperidyl]-6-isopropoxy-N-[6-(trifluoromethyl)-2-pyridyl]indazole-5-carboxamide]",10 to 100
7,"CC(C)Oc1cc2nc(C3CCN(CC(=O)N4CCC(c5cc(F)c(C6CCC(=O)NC6=O)cc5F)CC4)CC3)cn2cc1C(=O)Nc1cccc(C(F)F)n1 (stereo not shown) [Example 97, N-[6-(difluoromethyl)-2-pyridyl]-2-[1-[2-[4-[4-(2,6-dioxo-3-piperidyl)-2,5-difluoro-phenyl]-1-piperidyl]-2-oxo-ethyl]-4-piperidyl]-7-isopropoxy-imidazo[1,2-a]pyridine-6-carboxamide]",10 to 100
8,"CC(C)Oc1cc2nc([C@H]3CC[C@H](CN(C)C4CCN(Cc5ccc6c(c5)n(C)c(=O)n6C5CCC(=O)NC5=O)CC4)CC3)cn2cc1C(=O)Nc1cccc(C(F)F)n1 (stereo partly shown) [Example 43, N-[6-(difluoromethyl)-2-pyridyl]-2-[4-[[[1-[[1-(2,6-dioxo-3-piperidyl)-3-methyl-2-oxo-benzimidazol-5-yl]methyl]-4-piperidyl]-methyl-amino]methyl]cyclohexyl]-7-isopropoxy-imidazo[1,2-a]pyridine-6-carboxamide]",10 to 100
9,"CC(C)Oc1cc2nc(C3CCN(CC(F)=C4CCN(c5ncc(C6CCC(=O)NC6=O)cc5F)CC4)CC3)cn2cc1C(=O)Nc1cccc(C(F)F)n1 (stereo not shown) [Example 112, N-[6-(difluoromethyl)-2-pyridyl]-2-[1-[2-[1-[5-(2,6-dioxo-3-piperidyl)-3-fluoro-2-pyridyl]-4-piperidylidene]-2-fluoro-ethyl]-4-piperidyl]-7-isopropoxy-imidazo[1,2-a]pyridine-6-carboxamide]",10 to 100
10,"CC(C)Oc1cc2nn(C3CCN(C(=O)CC4(O)CCN(c5cc(F)c(C6CCC(=O)NC6=O)cc5F)CC4)CC3)cc2cc1C(=O)Nc1cnn2cccnc12 (stereo not shown) [Example 57, 2-(1-(2-(1-(4-(2,6-dioxopiperidin-3-yl)-2,5-difluorophenyl)-4-hydroxypiperidin-4-yl)acetyl)piperidin-4-yl)-6-isopropoxy-N-(pyrazolo[1,5-a]pyrimidin-3-yl)-2H-indazole-5-carboxamide]",< 10
11,"CC(C)Oc1cc2nc(C3CCN(CC(=O)N4CCC(c5ccc(C6(F)CCC(=O)NC6=O)cc5)CC4)CC3)cn2cc1C(=O)Nc1cccc(C(F)F)n1 (stereo not shown) [Example 101, N-[6-(difluoromethyl)-2-pyridyl]-2-[1-[2-[4-[4-(3-fluoro-2,6-dioxo-3-piperidyl)phenyl]-1-piperidyl]-2-oxo-ethyl]-4-piperidyl]-7-isopropoxy-imidazo[1,2-a]pyridine-6-carboxamide]",10 to 100
